In US9914731B2, “Pyrazolo[1,5-a]pyridine derivatives and methods of their use” (Ignyta, Inc., priority 2013, dated 2018):

target: recombinant human baculovirus-expressed cMET (Homo sapiens (Human), UniProt P08581); experiment: c-MET kinase assay (HTRF KinEASE); type: biochemical; conditions: average of two or more determinations; read-out: c-MET IC50

IC50 [nM]	SMILES
< 10	O=C(Nc1ccc(Oc2cc(N3CCCCC3)cn3nccc23)c(F)c1)c1cccn(-c2ccc(F)cc2)c1=O [Example 57, 1-(4-Fluoro-phenyl)-2-oxo-1,2-dihydro-pyridine-3-carboxylic acid[3-fluoro-4-(6-piperidin-1-yl-pyrazolo[1,5-a]pyridin-4-yloxy)-phenyl]-amide]
< 10	Cc1ccc(C(=O)Nc2ccc(Oc3cc(N4CCOCC4)cn4nccc34)c(F)c2)c(=O)n1-c1ccc(F)cc1 [Example 60, 1-(4-Fluoro-phenyl)-6-methyl-2-oxo-1,2-dihydro-pyridine-3-carboxylic acid [3-fluoro-4-(6-morpholin-4-yl-pyrazolo[1,5-a]pyridin-4-yloxy)-phenyl]-amide]
10 to 100	O=C(Nc1ccc(F)cc1)C1(C(=O)Nc2ccc(Oc3cc(N4CCOCC4)cn4nccc34)c(F)c2)CC1 [Example 63, Cyclopropane-1,1-dicarboxylic acid[3-fluoro-4-(6-morpholin-4-yl-pyrazolo[1,5-a]pyridin-4-yloxy)-phenyl]-amide(4-fluoro-phenyl)-amide]
10 to 100	CC(C)n1cc(C(=O)Nc2ccc(Oc3cc(N4CCC(F)(F)CC4)cn4nccc34)c(F)c2)c(=O)n(-c2ccc(F)cc2)c1=O [Example 69, 3-(4-Fluoro-phenyl)-1-isopropyl-2,4-dioxo-1,2,3,4-tetrahydro-pyrimidine-5-carboxylic acid{4-[6-(4,4-difluoro-piperidin-1-yl)-pyrazolo[1,5-a]pyridin-4-yloxy]-3-fluoro-phenyl}-amide]
10 to 100	CC(C)n1cc(C(=O)Nc2ccc(Oc3cc(N4CCC(F)(F)C4)cn4nccc34)c(F)c2)c(=O)n(-c2ccc(F)cc2)c1=O [Example 71, 3-(4-Fluoro-phenyl)-1-isopropyl-2,4-dioxo-1,2,3,4-tetrahydro-pyrimidine-5-carboxylic acid{4-[6-(3,3-difluoro-pyrrolidin-1-yl)-pyrazolo[1,5-a]pyridin-4-yloxy]-3-fluoro-phenyl}-amide]
< 10	CCn1cc(C(=O)Nc2ccc(Oc3cc(N4CCS(=O)(=O)CC4)cn4nccc34)c(F)c2)c(=O)n(-c2ccc(F)cc2)c1=O [Example 73, 1-Ethyl-3-(4-fluoro-phenyl)-2,4-dioxo-1,2,3,4-tetrahydro-pyrimidine-5-carboxylic acid{4-[6-(1,1-dioxo-thiomorpholin-4-yl)-pyrazolo[1,5-a]pyridin-4-yloxy]-3-fluoro-phenyl}-amide]
< 10	O=C(Nc1ccc(Oc2cc(N3CCCC3=O)cn3nccc23)c(F)c1)c1cccn(-c2ccc(F)cc2)c1=O [Example 76, 1-(4-Fluoro-phenyl)-2-oxo-1,2-dihydro-pyridine-3-carboxylic acid{3-fluoro-4-[6-(2-oxo-pyrrolidin-1-yl)-pyrazolo[1,5-a]pyridin-4-yloxy]-phenyl}-amide]
< 10	CC(C)n1cc(C(=O)Nc2ccc(Oc3cc(N4CCCC4=O)cn4nccc34)c(F)c2)c(=O)n(-c2ccc(F)cc2)c1=O [Example 78, 3-(4-Fluoro-phenyl)-1-isopropyl-2,4-dioxo-1,2,3,4-tetrahydro-pyrimidine-5-carboxylic acid {3-fluoro-4-[6-(2-oxo-pyrrolidin-1-yl)-pyrazolo[1,5-a]pyridin-4-yloxy]-phenyl}-amide]
< 10	CC(C)n1cc(C(=O)Nc2ccc(Oc3cc(Nc4ncccn4)cn4nccc34)c(F)c2)c(=O)n(-c2ccc(F)cc2)c1=O [Example 85, 3-(4-Fluoro-phenyl)-1-isopropyl-2,4-dioxo-1,2,3,4-tetrahydro-pyrimidine-5-carboxylic acid{3-fluoro-4-[6-(pyrimidin-2-ylamino)-pyrazolo[1,5-a]pyridin-4-yloxy]-phenyl}-amide]
10 to 100	CCn1cc(C(=O)Nc2ccc(Oc3cc(Nc4ccccn4)cn4nccc34)c(F)c2)c(=O)n(-c2ccc(F)cc2)c1=O [Example 86, 1-Ethyl-3-(4-fluoro-phenyl)-2,4-dioxo-1,2,3,4-tetrahydro-pyrimidine-5-carboxylic acid{3-fluoro-4-[6-(pyridin-2-ylamino)-pyrazolo[1,5-a]pyridin-4-yloxy]-phenyl}-amide]
10 to 100	CC(C)n1cc(C(=O)Nc2ccc(Oc3cc(Nc4ccccn4)cn4nccc34)c(F)c2)c(=O)n(-c2ccc(F)cc2)c1=O [Example 87, 3-(4-Fluoro-phenyl)-1-isopropyl-2,4-dioxo-1,2,3,4-tetrahydro-pyrimidine-5-carboxylic acid{3-fluoro-4-[6-(pyridin-2-ylamino)-pyrazolo[1,5-a]pyridin-4-yloxy]-phenyl}-amide]
< 10	Cn1cc(-c2cc(Oc3ccc(NC(=O)c4cccn(-c5ccc(F)cc5)c4=O)cn3)c3ccnn3c2)cn1 [Example 89, 1-(4-Fluoro-phenyl)-2-oxo-1,2-dihydro-pyridine-3-carboxylic acid{6-[6-(1-methyl-1H-pyrazol-4-yl)-pyrazolo[1,5-a]pyridin-4-yloxy]-pyridin-3-yl}-amide]

Further lines, the molecule ahead of its results:

SMILES	IC50 [nM]
CCOCCn1cc(C(=O)Nc2ccc(Oc3cc(N4CCOCC4)cn4nccc34)c(F)c2)c(=O)n(-c2ccc(F)cc2)c1=O [Example 58, 1-(2-Ethoxy-ethyl)-3-(4-fluoro-phenyl)-2,4-dioxo-1,2,3,4-tetrahydro-pyrimidine-5-carboxylic acid [3-fluoro-4-(6-morpholin-4-yl-pyrazolo[1,5-a]pyridin-4-yloxy)-phenyl]-amide]	10 to 100
CCn1cc(C(=O)Nc2ccc(Oc3cc(N4CCOCC4)cn4nccc34)c(F)c2)c(=O)n(-c2ccc(F)cc2)c1=O [Example 61, 1-Ethyl-3-(4-fluoro-phenyl)-2,4-dioxo-1,2,3,4-tetrahydro-pyrimidine-5-carboxylic acid[3-fluoro-4-(6-morpholin-4-yl-pyrazolo[1,5-a]pyridin-4-yloxy)-phenyl]-amide]	< 10
O=C(Nc1ccc(Oc2cc(N3CCC4(CC3)OCCO4)cn3nccc23)c(F)c1)c1cccn(-c2ccc(F)cc2)c1=O [Example 67, 1-4-(Fluoro-phenyl)-2-oxo-1,2-dihydro-pyridine-3-carboxylic acid{4-[6-(1,4-dioxa-8-aza-spiro[4,5]dec-8-yl)-pyrazolo[1,5-a]pyridin-4-yloxy]-3-fluoro-phenyl}-amide]	10 to 100
CCn1cc(C(=O)Nc2ccc(Oc3cc(N4CCC(F)(F)C4)cn4nccc34)c(F)c2)c(=O)n(-c2ccc(F)cc2)c1=O [Example 70, 1-Ethyl-3-(4-fluoro-phenyl)-2,4-dioxo-1,2,3,4-tetrahydro-pyrimidine-5-carboxylic acid{4-[6-(3,3-difluoro-pyrrolidin-1-yl)-pyrazolo[1,5-a]pyridin-4-yloxy]-3-fluoro-phenyl}-amide]	10 to 100
O=C(Nc1ccc(Oc2cc(N3CCS(=O)(=O)CC3)cn3nccc23)c(F)c1)c1cccn(-c2ccc(F)cc2)c1=O [Example 72, 1-(4-Fluoro-phenyl)-2-oxo-1,2-dihydro-pyridine-3-carboxylic acid{4-[6-(1,1-dioxo-thiomorpholin-4-yl)-pyrazolo[1,5-a]pyridin-4-yloxy]-3-fluoro-phenyl}-amide]	10 to 100
CC(C)n1cc(C(=O)Nc2ccc(Oc3cc(N4CCS(=O)(=O)CC4)cn4nccc34)c(F)c2)c(=O)n(-c2ccc(F)cc2)c1=O [Example 74, 3-(4-Fluoro-phenyl)-1-isopropyl-2,4-dioxo-1,2,3,4-tetrahydro-pyrimidine-5-carboxylic acid{4-[6-(1,1-dioxo-thiomorpholin-4-yl)-pyrazolo[1,5-a]pyridin-4-yloxy]-3-fluoro-phenyl}-amide]	< 10
O=C(Nc1ccc(Oc2cc(N3CCCC3)cn3nccc23)c(F)c1)c1cccn(-c2ccc(F)cc2)c1=O [Example 75, 1-(4-Fluoro-phenyl)-2-oxo-1,2-dihydro-pyridine-3-carboxylic acid[3-fluoro-4-(6-pyrrolidin-1-yl-pyrazolo[1,5-a]pyridin-4-yloxy)-phenyl]-amide]	< 10
O=C(Nc1ccc(Oc2cc(Nc3ccccc3)cn3nccc23)c(F)c1)c1cccn(-c2ccc(F)cc2)c1=O [Example 80, 1-(4-Fluoro-phenyl)-2-oxo-1,2-dihydro-pyridine-3-carboxylic acid[3-fluoro-4-(6-phenylamino-pyrazolo[1,5-a]pyridin-4-yloxy)-phenyl]-amide]	< 10
O=C(Nc1ccc(Oc2cc(Nc3ccccn3)cn3nccc23)c(F)c1)c1cccn(-c2ccc(F)cc2)c1=O [Example 81, 1-(4-Fluoro-phenyl)-2-oxo-1,2-dihydro-pyridine-3-carboxylic acid{3-fluoro-4-[6-(pyridin-2-ylamino)-pyrazolo[1,5-a]pyridin-4-yloxy]-phenyl}-amide]	< 10
Cc1c(Nc2cc(Oc3ccc(NC(=O)c4cccn(-c5ccc(F)cc5)c4=O)cc3F)c3ccnn3c2)cnn1C [Example 82, 1-(4-Fluoro-phenyl)-2-oxo-1,2-dihydro-pyridine-3-carboxylic acid{4-[6-(1,5-dimethyl-1H-pyrazol-4-ylamino)-pyrazolo[1,5-a]pyridin-4-yloxy]-3-fluoro-phenyl}-amide]	< 10
Cc1ccc(C(=O)Nc2ccc(Oc3cc(Nc4ccc(F)cn4)cn4nccc34)c(F)c2)c(=O)n1-c1ccc(F)cc1 [Example 83, 1-(4-Fluoro-phenyl)-6-methyl-2-oxo-1,2-dihydro-pyridine-3-carboxylic acid {3-fluoro-4-[6-(5-fluoro-pyridin-2-ylamino)-pyrazolo[1,5-a]pyridin-4-yloxy]-phenyl}-amide]	< 10
CCn1cc(C(=O)Nc2ccc(Oc3cc(Nc4ncccn4)cn4nccc34)c(F)c2)c(=O)n(-c2ccc(F)cc2)c1=O [Example 84, 1-Ethyl-3-(4-fluoro-phenyl)-2,4-dioxo-1,2,3,4-tetrahydro-pyrimidine-5-carboxylic acid{3-fluoro-4-[6-(pyrimidin-2-ylamino)-pyrazolo[1,5-a]pyridin-4-yloxy]-phenyl}-amide]	10 to 100

same assay, conditions: read-out: c-MET IC50

SMILES	IC50 [nM]
CCOc1ccn(-c2ccc(F)cc2)c(=O)c1C(=O)Nc1ccc(Oc2cc(N3CCOCC3)cn3nccc23)c(F)c1 [Example 66, 4-Ethoxy-1-(4-fluoro-phenyl)-2-oxo-1,2-dihydro-pyridine-3-carboxylic acid [3-fluoro-4-(6-morpholin-4-yl-pyrazolo[1,5-a]pyridin-4-yloxy)-phenyl]-amide]	< 10
